# PubChem BioAssay (NCI)
#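 Five concentrations, 48 hours, 96-well plates. TGI marks complete inhibition of growth.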
# How the values were obtained:
# Experiment in all cases: NCI tumour cell line growth inhibition, 48 h
# MCF7 breast = system: MCF7 breast
# A549 NSCLC = system: A549 NSCLC
# HS 578T breast = system: HS 578T breast
# SF-268 CNS = system: SF-268 CNS
# ACHN renal = system: ACHN renal
# A498 renal = system: A498 renal
# CCRF-CEM leukemia = system: CCRF-CEM leukemia
# MDA-MB-435 = system: MDA-MB-435
# HCT-116 colon = system: HCT-116 colon
# MOLT-4 leukemia = system: MOLT-4 leukemia
# T-47D breast = system: T-47D breast
# SK-MEL-5 melanoma = system: SK-MEL-5 melanoma
# K-562 leukemia = system: K-562 leukemia
# SF-295 CNS = system: SF-295 CNS
# M14 melanoma = system: M14 melanoma
# HOP-92 NSCLC = system: HOP-92 NSCLC
# BT-549 breast = system: BT-549 breast
# TK-10 renal = system: TK-10 renal
# SW-620 colon = system: SW-620 colon
# HT29 colon = system: HT29 colon
# NCI-H226 lung = system: NCI-H226 lung
# MDA-N = system: MDA-N
# SK-OV-3 ovarian = system: SK-OV-3 ovarian
# LOX IMVI melanoma = system: LOX IMVI melanoma
# SN12C renal = system: SN12C renal
# PC-3 prostate = system: PC-3 prostate
# CAKI-1 renal = system: CAKI-1 renal
# MDA-MB-231 breast = system: MDA-MB-231 breast
# SK-MEL-28 melanoma = system: SK-MEL-28 melanoma
# HCT-15 colon = system: HCT-15 colon
# SNB-75 CNS = system: SNB-75 CNS
# OVCAR-8 ovarian = system: OVCAR-8 ovarian
# OVCAR-5 ovarian = system: OVCAR-5 ovarian
# NCI-H23 lung = system: NCI-H23 lung
# UO-31 renal = system: UO-31 renal
# MALME-3M melanoma = system: MALME-3M melanoma
# OVCAR-4 ovarian = system: OVCAR-4 ovarian
# U251 CNS = system: U251 CNS
# COLO 205 colon = system: COLO 205 colon
# RXF 393 renal = system: RXF 393 renal
# 786-0 renal = system: 786-0 renal
# DU-145 prostate = system: DU-145 prostate
# UACC-257 melanoma = system: UACC-257 melanoma
# SF-539 CNS = system: SF-539 CNS
# SNB-19 CNS = system: SNB-19 CNS
# SK-MEL-2 melanoma = system: SK-MEL-2 melanoma
# NCI-H460 lung = system: NCI-H460 lung
# NCI/ADR-RES ovarian = system: NCI/ADR-RES ovarian
# OVCAR-3 ovarian = system: OVCAR-3 ovarian
# KM12 colon = system: KM12 colon
# IGROV1 ovarian = system: IGROV1 ovarian
# UACC-62 melanoma = system: UACC-62 melanoma
# EKVX NSCLC = system: EKVX NSCLC
# NCI-H522 lung = system: NCI-H522 lung
# HOP-62 NSCLC = system: HOP-62 NSCLC
# HL-60(TB) leukemia = system: HL-60(TB) leukemia
# SR leukemia = system: SR leukemia
# RPMI-8226 leukemia = system: RPMI-8226 leukemia
# HCC-2998 colon = system: HCC-2998 colon
structure (smiles),measurement,setting,value
Cc1ccc(-c2cc(-c3ccc(Cl)cc3)nc(/N=C3\C(=O)N(CN(C)C)c4ccccc43)n2)cc1,TGI,MCF7 breast,> 100 µM
same,TGI,A549 NSCLC,> 100 µM
same,TGI,HS 578T breast,> 100 µM
same,TGI,SF-268 CNS,> 100 µM
same,TGI,ACHN renal,> 100 µM
same,TGI,A498 renal,> 100 µM
same,TGI,CCRF-CEM leukemia,> 100 µM
same,TGI,MDA-MB-435,32.1 µM
same,TGI,HCT-116 colon,> 100 µM
same,TGI,MOLT-4 leukemia,33.5 µM
same,TGI,T-47D breast,> 100 µM
same,TGI,SK-MEL-5 melanoma,> 100 µM
same,TGI,K-562 leukemia,> 100 µM
same,TGI,SF-295 CNS,> 100 µM
same,TGI,M14 melanoma,> 100 µM
same,TGI,HOP-92 NSCLC,> 100 µM
same,TGI,BT-549 breast,> 100 µM
same,TGI,TK-10 renal,> 100 µM
same,TGI,SW-620 colon,> 100 µM
same,TGI,HT29 colon,> 100 µM
same,TGI,NCI-H226 lung,> 100 µM
same,TGI,MDA-N,43.9 µM
same,TGI,SK-OV-3 ovarian,> 100 µM
same,TGI,LOX IMVI melanoma,58.5 µM
same,TGI,SN12C renal,> 100 µM
same,TGI,PC-3 prostate,> 100 µM
same,TGI,CAKI-1 renal,> 100 µM
same,TGI,MDA-MB-231 breast,> 100 µM
same,TGI,SK-MEL-28 melanoma,> 100 µM
same,TGI,HCT-15 colon,> 100 µM
same,TGI,SNB-75 CNS,> 100 µM
same,TGI,OVCAR-8 ovarian,> 100 µM
same,TGI,OVCAR-5 ovarian,> 100 µM
same,TGI,NCI-H23 lung,> 100 µM
same,TGI,UO-31 renal,> 100 µM
same,TGI,MALME-3M melanoma,> 100 µM
same,TGI,OVCAR-4 ovarian,> 100 µM
same,TGI,U251 CNS,> 100 µM
same,TGI,COLO 205 colon,> 100 µM
same,TGI,RXF 393 renal,63.9 µM
same,TGI,786-0 renal,> 100 µM
same,TGI,DU-145 prostate,97.8 µM
same,TGI,UACC-257 melanoma,94.7 µM
same,TGI,SF-539 CNS,> 100 µM
same,TGI,SNB-19 CNS,> 100 µM
same,TGI,SK-MEL-2 melanoma,> 100 µM
same,TGI,NCI-H460 lung,> 100 µM
same,TGI,NCI/ADR-RES ovarian,> 100 µM
same,TGI,OVCAR-3 ovarian,> 100 µM
same,TGI,KM12 colon,> 100 µM
same,TGI,IGROV1 ovarian,> 100 µM
same,TGI,UACC-62 melanoma,> 100 µM
same,TGI,EKVX NSCLC,> 100 µM
same,TGI,NCI-H522 lung,69.4 µM
same,TGI,HOP-62 NSCLC,> 100 µM
same,TGI,HL-60(TB) leukemia,26.2 µM
Cc1nn(C(=O)c2ccncc2)c2c1C(c1ccccc1[N+](=O)[O-])SC(N)=N2 (stereo not given),TGI,MCF7 breast,> 10 µM
same,TGI,A549 NSCLC,> 10 µM
same,TGI,HS 578T breast,> 10 µM
same,TGI,SF-268 CNS,> 10 µM
same,TGI,SR leukemia,> 10 µM
same,TGI,ACHN renal,> 10 µM
same,TGI,CCRF-CEM leukemia,> 10 µM
same,TGI,MDA-MB-435,> 10 µM
same,TGI,HCT-116 colon,> 10 µM
same,TGI,MOLT-4 leukemia,> 10 µM
same,TGI,T-47D breast,> 10 µM
same,TGI,SK-MEL-5 melanoma,> 10 µM
same,TGI,K-562 leukemia,> 10 µM
same,TGI,SF-295 CNS,> 10 µM
same,TGI,M14 melanoma,> 10 µM
same,TGI,HOP-92 NSCLC,> 10 µM
same,TGI,BT-549 breast,> 10 µM
same,TGI,TK-10 renal,> 10 µM
same,TGI,SW-620 colon,> 10 µM
same,TGI,HT29 colon,> 10 µM
same,TGI,NCI-H226 lung,> 10 µM
same,TGI,MDA-N,> 10 µM
same,TGI,RPMI-8226 leukemia,> 10 µM
same,TGI,LOX IMVI melanoma,> 10 µM
same,TGI,SN12C renal,> 10 µM
same,TGI,PC-3 prostate,> 10 µM
same,TGI,CAKI-1 renal,> 10 µM
same,TGI,MDA-MB-231 breast,> 10 µM
same,TGI,SK-MEL-28 melanoma,> 10 µM
same,TGI,HCT-15 colon,> 10 µM
same,TGI,SNB-75 CNS,> 10 µM
same,TGI,OVCAR-8 ovarian,> 10 µM
same,TGI,OVCAR-5 ovarian,> 10 µM
same,TGI,NCI-H23 lung,> 10 µM
same,TGI,MALME-3M melanoma,> 10 µM
same,TGI,OVCAR-4 ovarian,> 10 µM
same,TGI,COLO 205 colon,> 10 µM
same,TGI,RXF 393 renal,> 10 µM
same,TGI,HCC-2998 colon,> 10 µM
same,TGI,786-0 renal,> 10 µM
same,TGI,DU-145 prostate,> 10 µM
same,TGI,UACC-257 melanoma,> 10 µM
same,TGI,SF-539 CNS,> 10 µM
same,TGI,SNB-19 CNS,> 10 µM
same,TGI,SK-MEL-2 melanoma,> 10 µM
same,TGI,NCI-H460 lung,> 10 µM
same,TGI,NCI/ADR-RES ovarian,> 10 µM
same,TGI,OVCAR-3 ovarian,> 10 µM
same,TGI,KM12 colon,> 10 µM
same,TGI,IGROV1 ovarian,> 10 µM
same,TGI,UACC-62 melanoma,> 10 µM
same,TGI,EKVX NSCLC,> 10 µM
same,TGI,HOP-62 NSCLC,> 10 µM
same,TGI,HL-60(TB) leukemia,> 10 µM
